From ChEMBL document CHEMBL4396896, “N-Aminoacyl and N-hydroxyacyl derivatives of diosgenyl 2-amino-2-deoxy-β-d-glucopyranoside: Synthesis, antimicrobial and hemolytic activities” (Bioorg Med Chem, 2019)
Values after ≈ are worked out from the molar mass of the structure shown.

What was measured:
Candida albicans = assay: Antifungal activity against Candida albicans ATCC 10231 incubated in sabouraud liquid medium under aerobic condition for 48 hrs using initial inoculum of 10^3 CFU/ml by serial dilution method; type: functional; settings: ATCC 10231, 48 h
Bacillus subtilis = assay: Antibacterial activity against Bacillus subtilis ATCC 6633 incubated in MHB II under aerobic condition for 18 hrs using initial inoculum of 5 x 10^5 CFU/ml by serial dilution method; type: functional; settings: ATCC 6633, 18 h
Enterococcus faecalis = assay: Antibacterial activity against Enterococcus faecalis ATCC 29212 incubated in MHB II under aerobic condition for 18 hrs using initial inoculum of 5 x 10^5 CFU/ml by serial dilution method; type: functional; settings: ATCC 29212, 18 h
Staphylococcus aureus = assay: Antibacterial activity against Staphylococcus aureus ATCC 25923 incubated in MHB II under aerobic condition for 18 hrs using initial inoculum of 5 x 10^5 CFU/ml by serial dilution method; type: functional; settings: ATCC 25923, 18 h
[1] = system: Staphylococcus epidermidis; assay: Antibacterial activity against Staphylococcus epidermidis PCM 2118 incubated in MHB II under aerobic condition for 18 hrs using initial inoculum of 5 x 10^5 CFU/ml by serial dilution method; type: functional; settings: PCM 2118, 18 h
Escherichia coli = assay: Antibacterial activity against Escherichia coli ATCC 25922 incubated in MHB II under aerobic condition for 18 hrs using initial inoculum of 5 x 10^5 CFU/ml by serial dilution method; type: functional; settings: ATCC 25922, 18 h
Klebsiella pneumoniae = assay: Antibacterial activity against Klebsiella pneumoniae ATCC 700603 incubated in MHB II under aerobic condition for 18 hrs using initial inoculum of 5 x 10^5 CFU/ml by serial dilution method; type: functional; settings: ATCC 700603, 18 h
Proteus mirabilis = assay: Antibacterial activity against Proteus mirabilis PCM 543 incubated in MHB II under aerobic condition for 18 hrs using initial inoculum of 5 x 10^5 CFU/ml by serial dilution method; type: functional; settings: PCM 543, 18 h
Pseudomonas aeruginosa = assay: Antibacterial activity against Pseudomonas aeruginosa ATCC 9027 incubated in MHB II under aerobic condition for 18 hrs using initial inoculum of 5 x 10^5 CFU/ml by serial dilution method; type: functional; settings: ATCC 9027, 18 h
Yarrowia lipolytica = assay: Antifungal activity against Candida lipolytica PCM 2680 incubated in sabouraud liquid medium under aerobic condition for 48 hrs using initial inoculum of 10^3 CFU/ml by serial dilution method; type: functional; settings: PCM 2680, 48 h
[2] = Haemolytic activity in human erythrocytes assessed as haemolytic index by measuring hemoglobin release at 128 mg/L incubated for 1 hr by microplate spectrophotometry; type: ADME, cell-based, Erythrocyte; settings: read-out: HI
[3] = Haemolytic activity in human erythrocytes assessed as haemolytic index by measuring hemoglobin release at 64 mg/L incubated for 1 hr by microplate spectrophotometry; type: ADME, cell-based, Erythrocyte; settings: read-out: HI
[4] = Haemolytic activity in human erythrocytes assessed as haemolytic index by measuring hemoglobin release at 0.5 to 128 mg/L incubated for 1 hr by microplate spectrophotometry relative to control; type: ADME, cell-based, Erythrocyte; settings: human erythrocytes, read-out: HI

Compound	MIC (Candida albicans)	MIC (Bacillus subtilis)	MIC (Enterococcus faecalis)	MIC (Staphylococcus aureus)	MIC [1]	MIC (Escherichia coli)	MIC (Klebsiella pneumoniae)	MIC (Proteus mirabilis)	MIC (Pseudomonas aeruginosa)	MIC (Yarrowia lipolytica)	hemolysis at 1 h, 128 mg/L [2]	hemolysis at 1 h, 64 mg/L [3]	hemolysis at 1 h [4]
CC(=O)N[C@H]1[C@H](O[C@H]2CC[C@@]3(C)C(=CC[C@H]4[C@@H]5C[C@@H]6O[C@]7(CC[C@@H](C)CO7)[C@@H](C)[C@@H]6[C@@]5(C)CC[C@@H]43)C2)O[C@H](CO)[C@@H](O)[C@@H]1O	> 128 µg/mL	> 128 µg/mL	> 128 µg/mL	> 128 µg/mL	> 128 µg/mL	> 128 µg/mL	> 128 µg/mL	> 128 µg/mL	> 128 µg/mL				
C[C@@H]1CC[C@@]2(OC1)O[C@H]1C[C@H]3[C@@H]4CC=C5C[C@@H](O[C@@H]6O[C@H](CO)[C@@H](O)[C@H](O)[C@H]6NC(=O)[C@H](C)NC(=O)[C@H](C)N)CC[C@]5(C)[C@H]4CC[C@]3(C)[C@H]1[C@@H]2C	64 µg/mL (≈ 89.1 µM)	64 µg/mL (≈ 89.1 µM)	> 128 µg/mL	128 µg/mL (≈ 178 µM)	128 µg/mL (≈ 178 µM)	> 128 µg/mL	> 128 µg/mL	> 128 µg/mL	> 128 µg/mL	32 µg/mL (≈ 44.6 µM)	74%	57%	
C[C@@H]1CC[C@@]2(OC1)O[C@H]1C[C@H]3[C@@H]4CC=C5C[C@@H](O[C@@H]6O[C@H](CO)[C@@H](O)[C@H](O)[C@H]6NC(=O)CO)CC[C@]5(C)[C@H]4CC[C@]3(C)[C@H]1[C@@H]2C	> 128 µg/mL	> 128 µg/mL	> 128 µg/mL	> 128 µg/mL	> 128 µg/mL	> 128 µg/mL	> 128 µg/mL	> 128 µg/mL	> 128 µg/mL	> 128 µg/mL			< 10%
C[C@@H]1CC[C@@]2(OC1)O[C@H]1C[C@H]3[C@@H]4CC=C5C[C@@H](O[C@@H]6O[C@H](CO)[C@@H](O)[C@H](O)[C@H]6NC(=O)[C@@H](N)CO)CC[C@]5(C)[C@H]4CC[C@]3(C)[C@H]1[C@@H]2C	4 µg/mL (≈ 6.03 µM)	8 µg/mL (≈ 12.1 µM)	16 µg/mL (≈ 24.1 µM)	8 µg/mL (≈ 12.1 µM)	4 µg/mL (≈ 6.03 µM)	> 128 µg/mL	> 128 µg/mL	> 128 µg/mL	> 128 µg/mL	4 µg/mL (≈ 6.03 µM)	46%		
CNCC(=O)N[C@H]1[C@H](O[C@H]2CC[C@@]3(C)C(=CC[C@H]4[C@@H]5C[C@@H]6O[C@]7(CC[C@@H](C)CO7)[C@@H](C)[C@@H]6[C@@]5(C)CC[C@@H]43)C2)O[C@H](CO)[C@@H](O)[C@@H]1O	4 µg/mL (≈ 6.18 µM)	4 µg/mL (≈ 6.18 µM)	4 µg/mL (≈ 6.18 µM)	4 µg/mL (≈ 6.18 µM)	4 µg/mL (≈ 6.18 µM)	> 128 µg/mL	> 128 µg/mL	> 128 µg/mL	> 128 µg/mL	4 µg/mL (≈ 6.18 µM)			< 10%
CSCC[C@H](N)C(=O)N[C@H]1[C@H](O[C@H]2CC[C@@]3(C)C(=CC[C@H]4[C@@H]5C[C@@H]6O[C@]7(CC[C@@H](C)CO7)[C@@H](C)[C@@H]6[C@@]5(C)CC[C@@H]43)C2)O[C@H](CO)[C@@H](O)[C@@H]1O		> 128 µg/mL	4 µg/mL (≈ 5.66 µM)	> 128 µg/mL	4 µg/mL (≈ 5.66 µM)	> 128 µg/mL	> 128 µg/mL	> 128 µg/mL	> 128 µg/mL				< 4%
CC(=O)NCC(=O)N[C@H]1[C@H](O[C@H]2CC[C@@]3(C)C(=CC[C@H]4[C@@H]5C[C@@H]6O[C@]7(CC[C@@H](C)CO7)[C@@H](C)[C@@H]6[C@@]5(C)CC[C@@H]43)C2)O[C@H](CO)[C@@H](O)[C@@H]1O	> 128 µg/mL	> 128 µg/mL	> 128 µg/mL	> 128 µg/mL	> 128 µg/mL	> 128 µg/mL	> 128 µg/mL	> 128 µg/mL	> 128 µg/mL	> 128 µg/mL			< 10%
C[C@@H]1CC[C@@]2(OC1)O[C@H]1C[C@H]3[C@@H]4CC=C5C[C@@H](O[C@@H]6O[C@H](CO)[C@@H](O)[C@H](O)[C@H]6NC(=O)C(F)(F)F)CC[C@]5(C)[C@H]4CC[C@]3(C)[C@H]1[C@@H]2C	> 128 µg/mL	> 128 µg/mL	> 128 µg/mL	> 128 µg/mL	> 128 µg/mL	> 128 µg/mL	> 128 µg/mL	> 128 µg/mL	> 128 µg/mL				
